We go through one compound from patent US9133525B2, “Detection of DNA sequences as risk factors for HIV infection” (priority 2012, dated 2015).

The assay has as its system antibiotic sensitive microorganism associated with red blood cells. In words: PCR amplification of DNA from red blood cells of HIV-positive patients with MSP2 Primer Pairs 1 and 2, before and after long-term antibiotic treatment. Type of assay: in vivo, human (HIV-positive patients). Here is the method: Standard procedures for separating RBCs from buffy coat and other peripheral blood components are known. Peripheral blood was processed on a Ficoll gradient to separate the buffy coat from red blood cells. […] This lysate was prepared by repeated freeze-thawing of red blood cells isolated from the buffy coat, strong shaking by vortex, and a low speed centrifugation (1,500 g×10 mins). A pellet and supernatant fraction were obtained and tested. The primers described above only amplified DNA in the supernatant fraction, but not in the pellet.
Five HIV-positive patients were maintained on their antiretroviral therapy, but received for at least three months a daily antibiotic treatment (azithromycin 250 mg/day or doxycycline 100 mg/day). Blood samples were fractionated to recover a red blood cell fraction on day 0 and after 3 months of antibiotic.
Blood samples were obtained from African and European Patients who were HIV-negative or HIV-positive. Red blood cells were isolated from buffy coat and other blood components by separation on a Ficoll gradient as described above. […] Similar results were obtained using the primers described in Appendix 3. […] However, amplified DNA was detected in this patient using the Primer Pairs 1 and 2 shown in Appendix 2, but the amplified DNA bands were weaker than those for chronically-infected HIV-positive patients. […]

Each structure is given as a SMILES string.

In the case of `CC[C@H]1OC(=O)[C@H](C)[C@@H](O[C@H]2C[C@@](C)(OC)[C@@H](O)[C@H](C)O2)[C@H](C)[C@@H](O[C@@H]2O[C@H](C)C[C@H](N(C)C)[C@H]2O)[C@](C)(O)C[C@@H](C)CN(C)[C@H](C)[C@@H](O)[C@]1(C)O` [azithromycin], the “intensity of the bands amplified using these primers” value (HIV-positive patients, long term antibiotic treatment for more than three months, Primer Pairs 1 and 2) is on record as “decrease”. Also, under “five HIV-positive patients on antiretroviral therapy, daily azithromycin 250 mg/day or doxycycline 100 mg/day for at least three months, red blood cell fraction”, the “amount of DNA amplified after 3 months of antibiotic treatment vs day 0” value is given as “significantly less”.
